Assay results from patent US10792289B2 (Horizon Orphan LLC, priority 2009, dated 2020).

System: non-fermenting gram negative bacilli (NFGNB), excluding P. aeruginosa
Test: Phase 2 study: non-fermenting gram negative bacilli density in sputum
Format: in vivo
Procedure: The following dosage regimens (as nebulizer loaded doses) were evaluated: 120 mg QD (daily); 240 mg QD (daily); and 240 mg BID (twice daily). Based on aerosol characterization studies of the 100 mg/ml formulation, these loaded doses of 120 and 240 mg correspond estimated respirable delivered doses (RDDs) using a PART eFlow nebulizer of about 65 and 130 mg, respectively.
Patients were assessed on Day 1, 7, 14, and 28, and then up to 28 days after completion of study drug, namely, Days 42 and 56. The end of the study was defined as the last visit of the last patient. Study populations included: (1) safety/modified intent to treat (MITT) population which included all patients enrolled in the study that receive at least one dose of study drug; (2) efficacy evaluable (EE) population which included all patients enrolled in the study without major protocol violations that receive at least 80% of study drug doses during the 28 days of study drug therapy; and (3) pharmacokinetic (PK) population which included all patients that receive at least one dose of study drug and have at least one PK blood sample collected.
Changes in P. aeruginosa density (log lo CFU/g sputum) for sputum samples taken from the EE and MITT populations are summarized in Tables 10 and 11, respectively (SD=standard deviation). […] Tables 18 and 19 summarize changes in non-fermenting gram negative bacilli density (NFGNB), excluding P. aeruginosa, with only patients with positive NFGNB counts at baseline, for EE and MITT populations, respectively. Tables 20 and 21 summarize changes for presumptive S. aureus density (log10 CFU/g sputum) for only patients with positive S. aureus counts at baseline, for EE and MITT populations, respectively.

[1] = EE population, Combined 240 mg QD and BID
[2] = EE population, Combined Levofloxacin
[3] = MITT population, Combined 240 mg QD and BID
[4] = MITT population, Combined Levofloxacin

C[C@H]1COc2c(N3CCN(C)CC3)c(F)cc3c(=O)c(C(=O)O)cn1c23 [Levofloxacin, levofloxacin]
NFGNB density, Change from Baseline to Day 7, Mean (EE population, 120 mg QD): −1.15 log10 CFU/g sputum
NFGNB density, Day 1, Mean (EE population, 120 mg QD): 5.69 log10 CFU/g sputum
NFGNB density, Day 7, Mean (EE population, 120 mg QD): 4.54 log10 CFU/g sputum
NFGNB density, Day 14, Mean (EE population, 120 mg QD): 3.15 log10 CFU/g sputum
NFGNB density, Day 28, Mean (EE population, 120 mg QD): 5.10 log10 CFU/g sputum
NFGNB density, Change from Baseline to Day 28, Mean (EE population, 120 mg QD, Day 14): −2.54 log10 CFU/g sputum
NFGNB density, Change from Baseline to Day 28, Mean (EE population, 120 mg QD, Day 28): −1.44 log10 CFU/g sputum
NFGNB density, Change from Baseline to Day 7, Mean (EE population, 240 mg BID): −0.51 log10 CFU/g sputum
NFGNB density, Day 1, Mean (EE population, 240 mg BID): 5.52 log10 CFU/g sputum
NFGNB density, Day 7, Mean (EE population, 240 mg BID): 5.01 log10 CFU/g sputum
NFGNB density, Day 14, Mean (EE population, 240 mg BID): 6.02 log10 CFU/g sputum
NFGNB density, Day 28, Mean (EE population, 240 mg BID): 5.01 log10 CFU/g sputum
NFGNB density, Change from Baseline to Day 28, Mean (EE population, 240 mg BID, Day 14): 0.50 log10 CFU/g sputum
NFGNB density, Change from Baseline to Day 28, Mean (EE population, 240 mg BID, Day 28): −0.51 log10 CFU/g sputum
NFGNB density, Change from Baseline to Day 7, Mean (EE population, 240 mg QD): −2.47 log10 CFU/g sputum
NFGNB density, Day 1, Mean (EE population, 240 mg QD): 4.65 log10 CFU/g sputum
NFGNB density, Day 7, Mean (EE population, 240 mg QD): 2.18 log10 CFU/g sputum
NFGNB density, Day 14, Mean (EE population, 240 mg QD): 2.04 log10 CFU/g sputum
NFGNB density, Day 28, Mean (EE population, 240 mg QD): 1.36 log10 CFU/g sputum
NFGNB density, Change from Baseline to Day 28, Mean (EE population, 240 mg QD, Day 14): −2.61 log10 CFU/g sputum
NFGNB density, Change from Baseline to Day 28, Mean (EE population, 240 mg QD, Day 28): −3.29 log10 CFU/g sputum
NFGNB density, Change from Baseline to Day 7, Mean [1]: −1.60 log10 CFU/g sputum
NFGNB density, Day 1, Mean [1]: 5.03 log10 CFU/g sputum
NFGNB density, Day 7, Mean [1]: 3.44 log10 CFU/g sputum
NFGNB density, Day 14, Mean [1]: 3.80 log10 CFU/g sputum
NFGNB density, Day 28, Mean [1]: 2.98 log10 CFU/g sputum
NFGNB density, Change from Baseline to Day 28, Mean (EE population, Combined 240 mg QD and BID, Day 14): −1.23 log10 CFU/g sputum
NFGNB density, Change from Baseline to Day 28, Mean (EE population, Combined 240 mg QD and BID, Day 28): −2.05 log10 CFU/g sputum
NFGNB density, Change from Baseline to Day 7, Mean [2]: −1.44 log10 CFU/g sputum
NFGNB density, Day 1, Mean [2]: 5.27 log10 CFU/g sputum
NFGNB density, Day 7, Mean [2]: 3.83 log10 CFU/g sputum
NFGNB density, Day 14, Mean [2]: 3.57 log10 CFU/g sputum
NFGNB density, Day 28, Mean [2]: 3.63 log10 CFU/g sputum
NFGNB density, Change from Baseline to Day 28, Mean (EE population, Combined Levofloxacin, Day 14): −1.70 log10 CFU/g sputum
NFGNB density, Change from Baseline to Day 28, Mean (EE population, Combined Levofloxacin, Day 28): −1.87 log10 CFU/g sputum
NFGNB density, Change from Baseline to Day 7, Mean (MITT population, 120 mg QD): −1.15 log10 CFU/g sputum
NFGNB density, Day 1, Mean (MITT population, 120 mg QD): 5.69 log10 CFU/g sputum
NFGNB density, Day 7, Mean (MITT population, 120 mg QD): 4.54 log10 CFU/g sputum
NFGNB density, Day 14, Mean (MITT population, 120 mg QD): 3.25 log10 CFU/g sputum
NFGNB density, Day 28, Mean (MITT population, 120 mg QD): 5.10 log10 CFU/g sputum
NFGNB density, Change from Baseline to Day 28, Mean (MITT population, 120 mg QD, Day 14): −2.54 log10 CFU/g sputum
NFGNB density, Change from Baseline to Day 28, Mean (MITT population, 120 mg QD, Day 28): −1.44 log10 CFU/g sputum
NFGNB density, Change from Baseline to Day 7, Mean (MITT population, 240 mg BID): −0.42 log10 CFU/g sputum
NFGNB density, Day 1, Mean (MITT population, 240 mg BID): 6.05 log10 CFU/g sputum
NFGNB density, Day 7, Mean (MITT population, 240 mg BID): 5.63 log10 CFU/g sputum
NFGNB density, Day 14, Mean (MITT population, 240 mg BID): 6.50 log10 CFU/g sputum
NFGNB density, Day 28, Mean (MITT population, 240 mg BID): 5.63 log10 CFU/g sputum
NFGNB density, Change from Baseline to Day 28, Mean (MITT population, 240 mg BID, Day 14): 0.45 log10 CFU/g sputum
NFGNB density, Change from Baseline to Day 28, Mean (MITT population, 240 mg BID, Day 28): −0.43 log10 CFU/g sputum
NFGNB density, Change from Baseline to Day 7, Mean (MITT population, 240 mg QD): −2.73 log10 CFU/g sputum
NFGNB density, Day 1, Mean (MITT population, 240 mg QD): 5.26 log10 CFU/g sputum
NFGNB density, Day 7, Mean (MITT population, 240 mg QD): 2.52 log10 CFU/g sputum
NFGNB density, Day 14, Mean (MITT population, 240 mg QD): 3.08 log10 CFU/g sputum
NFGNB density, Day 28, Mean (MITT population, 240 mg QD): 2.77 log10 CFU/g sputum
NFGNB density, Change from Baseline to Day 28, Mean (MITT population, 240 mg QD, Day 14): −2.18 log10 CFU/g sputum
NFGNB density, Change from Baseline to Day 28, Mean (MITT population, 240 mg QD, Day 28): −2.49 log10 CFU/g sputum
NFGNB density, Change from Baseline to Day 7, Mean [3]: −1.77 log10 CFU/g sputum
NFGNB density, Day 1, Mean [3]: 5.59 log10 CFU/g sputum
NFGNB density, Day 7, Mean [3]: 3.82 log10 CFU/g sputum
NFGNB density, Day 14, Mean [3]: 4.50 log10 CFU/g sputum
NFGNB density, Day 28, Mean [3]: 3.96 log10 CFU/g sputum
NFGNB density, Change from Baseline to Day 28, Mean (MITT population, Combined 240 mg QD and BID, Day 14): −1.08 log10 CFU/g sputum
NFGNB density, Change from Baseline to Day 28, Mean (MITT population, Combined 240 mg QD and BID, Day 28): 1.63 log10 CFU/g sputum
NFGNB density, Change from Baseline to Day 7, Mean [4]: −1.59 log10 CFU/g sputum
NFGNB density, Day 1, Mean [4]: 5.62 log10 CFU/g sputum
NFGNB density, Day 7, Mean [4]: 4.03 log10 CFU/g sputum
NFGNB density, Day 14, Mean [4]: 4.11 log10 CFU/g sputum
NFGNB density, Day 28, Mean [4]: 4.24 log10 CFU/g sputum
NFGNB density, Change from Baseline to Day 28, Mean (MITT population, Combined Levofloxacin, Day 14): −1.51 log10 CFU/g sputum
NFGNB density, Change from Baseline to Day 28, Mean (MITT population, Combined Levofloxacin, Day 28): −1.58 log10 CFU/g sputum
